Results from patent publication US20230114728A1 (Venatorx Pharmaceuticals, Inc., priority 2019, published 2023).
Converted amounts (≈) assume the structure as drawn.

Legend:
Assay in all cases: Broth microdilution MIC in CAMHB
Type in all cases: cell-based
[1] = tested on: K. pneumoniae 848844 producing SHV-11 and KPC-2; settings: Klebsiella pneumoniae, read-out: Minimum Inhibitory Concentration, K. pneumoniae 848844
Outline: (§1)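 CLSI broth microdilution in CAMHB: 2-fold compound dilutions inoculated at 2-8×10^5 CFU/mL from 3-5 h log-phase cultures. Incubated at 37 °C for 16-20 h (Enterobacteriaceae, Pseudomonas); MIC read visually as lowest concentration without growth. Strains include hyper-permeable and efflux-deficient mutants.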

E. coli D22 = settings: Escherichia coli; E. coli D22 (hyper-permeable); MHB; read-out: Minimum Inhibitory Concentration, E. coli D22
Outline: as §1

E. coli AG100A = settings: Escherichia coli, read-out: Minimum Inhibitory Concentration, E. coli AG100A
Outline: as §1

[2] = tested on: P. aeruginosa (ΔmexAB-oprM); settings: Pseudomonas aeruginosa, read-out: Minimum Inhibitory Concentration, P. aeruginosa ΔmexAB-OprM
Outline: as §1

E. coli AG100 = settings: Escherichia coli; E. coli AG100 (wild-type parent); MHB; read-out: Minimum Inhibitory Concentration, E. coli AG100
Outline: as §1

P. aeruginosa ATCC 35151 = settings: Pseudomonas aeruginosa, ATCC35151; MHB; hyper-permeable strain; read-out: Minimum Inhibitory Concentration, P. aeruginosa ATCC 35151
Outline: as §1

E. coli ATCC 25922 = settings: Escherichia coli, ATCC25922; E. coli ATCC 25922; MHB; read-out: Minimum Inhibitory Concentration, E. coli 25922
Outline: as §1

A. baumannii ATCC 19606 = settings: Acinetobacter baumannii, ATCC19606; MHB; read-out: Minimum Inhibitory Concentration, A. baumannii ATCC 19606
Outline: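 Hyper-permeable or efflux-deficient strains serve to probe outer-membrane penetration. Growth inhibition is scored visually after 16-20 h at 37° C in CAMHB, starting from 2-8×10^5 CFU/mL.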

[3] = tested on: K. pneumoniae UMM producing SHV-5 and KPC-2; settings: Klebsiella pneumoniae, read-out: Minimum Inhibitory Concentration, K. pneumoniae UMM
Outline: as §1

E. coli 901C = settings: Escherichia coli; E. coli 901C (hyper-permeable); MHB; read-out: Minimum Inhibitory Concentration, E. coli 901C
Outline: as §1

[4] = tested on: K. pneumoniae SI-117 producing VIM-1; settings: Klebsiella pneumoniae, read-out: Minimum Inhibitory Concentration, K. pneumoniae SI-117
Outline: as §1

P. aeruginosa ATCC 27853 = settings: Pseudomonas aeruginosa, ATCC27853; MHB; read-out: Minimum Inhibitory Concentration, P. aeruginosa ATCC 27853
Outline: as §1

Row | SMILES | MIC [1] [µg/mL] | MIC (E. coli D22) [µg/mL] | MIC (E. coli AG100A) [µg/mL] | MIC [2] [µg/mL] | MIC (E. coli AG100) [µg/mL] | MIC (P. aeruginosa ATCC 35151) [µg/mL] | MIC (E. coli ATCC 25922) [µg/mL] | MIC (A. baumannii ATCC 19606) [µg/mL] | MIC [3] [µg/mL] | MIC (E. coli 901C) [µg/mL] | MIC [4] [µg/mL] | MIC (P. aeruginosa ATCC 27853) [µg/mL]
1 | CCN1CCN(C(=O)NC(C(=O)N[C@H]2Cc3cccc(C(=O)O)c3OB2O)c2cc(O)ccc2O)C(=O)C1=O (stereo partly drawn) [Example 77, (3R)-3-(2-(2,5-dihydroxyphenyl)-2-(4-ethyl-2,3-dioxopiperazine-1-carboxamido)acetamido)-2-hydroxy-3,4-dihydro-2H-benzo[e][1,2]oxaborinine-8-carboxylic acid] | > 128 | 8 to 16 (≈ 14.8 to 29.6 µM) | 32 to 64 (≈ 59.2 to 118 µM) | > 128 | > 128 | 8 to 16 (≈ 14.8 to 29.6 µM) | > 128 | > 128 | > 128 | 8 to 16 (≈ 14.8 to 29.6 µM) | > 128 | > 128
2 | N=C(N)NCCN1CCN(C(=O)NC(C(=O)N[C@H]2Cc3ccc(F)c(C(=O)O)c3OB2O)c2ccc(C(=O)O)c(F)c2)C(=O)C1=O (stereo partly drawn) [Example 78, (3R)-3-(2-(4-carboxy-3-fluorophenyl)-2-(4-(2-guanidinoethyl)-2,3-dioxopiperazine-1-carboxamido)acetamido)-7-fluoro-2-hydroxy-3,4-dihydro-2H-benzo[e][1,2]oxaborinine-8-carboxylic acid] | > 128 | 8 to 16 (≈ 12.4 to 24.8 µM) | > 128 | 32 to 64 (≈ 49.6 to 99.2 µM) | > 128 | 0.5 to 1 (≈ 0.775 to 1.55 µM) | > 128 | > 128 | > 128 | 2 to 4 (≈ 3.1 to 6.2 µM) | > 128 | 32 to 64 (≈ 49.6 to 99.2 µM)
3 | NCCN1CCN(C(=O)NC(C(=O)N[C@H]2Cc3cccc(C(=O)O)c3OB2O)c2cc(Cl)c(O)cc2F)C(=O)C1=O (stereo partly drawn) [Example 87, (3R)-3-(2-(4-(2-aminoethyl)-2,3-dioxopiperazine-1-carboxamido)-2-(5-chloro-2-fluoro-4-hydroxyphenyl)acetamido)-2-hydroxy-3,4-dihydro-2H-benzo[e][1,2]oxaborinine-8-carboxylic acid] | 32 to 64 (≈ 54.1 to 108 µM) | 2 to 4 (≈ 3.38 to 6.76 µM) | 0.5 to 1 (≈ 0.845 to 1.69 µM) | 8 to 16 (≈ 13.5 to 27 µM) | 8 to 16 (≈ 13.5 to 27 µM) | 0.5 to 1 (≈ 0.845 to 1.69 µM) | 8 to 16 (≈ 13.5 to 27 µM) | > 128 | 8 to 16 (≈ 13.5 to 27 µM) | < 0.25 | 32 to 64 (≈ 54.1 to 108 µM) | > 128
4 | NCCN1CCN(C(=O)N[C@@H](C(=O)N[C@H]2Cc3cccc(C(=O)O)c3OB2O)c2cc(Cl)c(O)cc2Cl)C(=O)C1=O [Example 90, (R)-3-((R)-2-(4-(2-aminoethyl)-2,3-dioxopiperazine-1-carboxamido)-2-(2,5-dichloro-4-hydroxyphenyl)acetamido)-2-hydroxy-3,4-dihydro-2H-benzo[e][1,2]oxaborinine-8-carboxylic acid] | > 128 | 8 to 16 (≈ 13.2 to 26.3 µM) | 32 to 64 (≈ 52.6 to 105 µM) | > 128 | 32 to 64 (≈ 52.6 to 105 µM) | 0.5 to 1 (≈ 0.822 to 1.64 µM) | > 128 | > 128 | > 128 | 0.5 to 1 (≈ 0.822 to 1.64 µM) | > 128 | > 128
5 | NCCN1CCN(C(=O)NC(C(=O)N[C@H]2Cc3cccc(C(=O)O)c3OB2O)c2cc(F)c(O)cc2F)C(=O)C1=O (stereo partly drawn) [Example 93, (3R)-3-(2-(4-(2-aminoethyl)-2,3-dioxopiperazine-1-carboxamido)-2-(2,5-difluoro-4-hydroxyphenyl)acetamido)-2-hydroxy-3,4-dihydro-2H-benzo[e][1,2]oxaborinine-8-carboxylic acid] | 32 to 64 (≈ 55.6 to 111 µM) | 2 to 4 (≈ 3.48 to 6.95 µM) | 2 to 4 (≈ 3.48 to 6.95 µM) | 32 to 64 (≈ 55.6 to 111 µM) | 8 to 16 (≈ 13.9 to 27.8 µM) | 0.5 to 1 (≈ 0.869 to 1.74 µM) | 8 to 16 (≈ 13.9 to 27.8 µM) | > 128 | 8 to 16 (≈ 13.9 to 27.8 µM) | 0.5 to 1 (≈ 0.869 to 1.74 µM) | 32 to 64 (≈ 55.6 to 111 µM) | > 128
6 | NCCN1CCN(C(=O)NC(C(=O)N[C@H]2Cc3cccc(C(=O)O)c3OB2O)c2c(F)cc(O)cc2Cl)C(=O)C1=O (stereo partly drawn) [Example 94, (3R)-3-(2-(4-(2-aminoethyl)-2,3-dioxopiperazine-1-carboxamido)-2-(2-chloro-6-fluoro-4-hydroxyphenyl)acetamido)-2-hydroxy-3,4-dihydro-2H-benzo[e][1,2]oxaborinine-8-carboxylic acid] | 32 to 64 (≈ 54.1 to 108 µM) | 8 to 16 (≈ 13.5 to 27 µM) | 2 to 4 (≈ 3.38 to 6.76 µM) | 32 to 64 (≈ 54.1 to 108 µM) | 32 to 64 (≈ 54.1 to 108 µM) | 2 to 4 (≈ 3.38 to 6.76 µM) | 32 to 64 (≈ 54.1 to 108 µM) | > 128 | 32 to 64 (≈ 54.1 to 108 µM) | 0.5 to 1 (≈ 0.845 to 1.69 µM) | 32 to 64 (≈ 54.1 to 108 µM) | > 128
7 | CCN1CCN(C(=O)NC(C(=O)N[C@H]2Cc3cccc(C(=O)O)c3OB2O)c2c(F)cc(O)cc2Cl)C(=O)C1=O (stereo partly drawn) [Example 95, (3R)-3-(2-(2-chloro-6-fluoro-4-hydroxyphenyl)-2-(4-ethyl-2,3-dioxopiperazine-1-carboxamido)acetamido)-2-hydroxy-3,4-dihydro-2H-benzo[e][1,2]oxaborinine-8-carboxylic acid] | 32 to 64 (≈ 55.5 to 111 µM) | 0.5 to 1 (≈ 0.867 to 1.73 µM) | 0.5 to 1 (≈ 0.867 to 1.73 µM) | 32 to 64 (≈ 55.5 to 111 µM) | 8 to 16 (≈ 13.9 to 27.7 µM) | 2 to 4 (≈ 3.47 to 6.94 µM) | 8 to 16 (≈ 13.9 to 27.7 µM) | > 128 | 8 to 16 (≈ 13.9 to 27.7 µM) | < 0.25 | 32 to 64 (≈ 55.5 to 111 µM) | > 128
8 | CCN1CCN(C(=O)NC(C(=O)N[C@H]2Cc3cccc(C(=O)O)c3OB2O)c2cccc(NC(=O)c3cncnc3)c2)C(=O)C1=O (stereo partly drawn) [Example 96, (3R)-3-(2-(4-ethyl-2,3-dioxopiperazine-1-carboxamido)-2-(3-(pyrimidine-5-carboxamido)phenyl)acetamido)-2-hydroxy-3,4-dihydro-2H-benzo[e][1,2]oxaborinine-8-carboxylic acid] | > 128 | 8 to 16 (≈ 12.7 to 25.4 µM) | 8 to 16 (≈ 12.7 to 25.4 µM) | 32 to 64 (≈ 50.8 to 102 µM) | > 128 | 2 to 4 (≈ 3.18 to 6.36 µM) | > 128 | > 128 | > 128 | 0.5 to 1 (≈ 0.794 to 1.59 µM) | > 128 | > 128
9 | CCN1CCN(C(=O)NC(C(=O)N[C@H]2Cc3cccc(C(=O)O)c3OB2O)c2cccc(NC(=O)c3cccnc3)c2)C(=O)C1=O (stereo partly drawn) [Example 97, (3R)-3-(2-(4-ethyl-2,3-dioxopiperazine-1-carboxamido)-2-(3-(nicotinamido)phenyl)acetamido)-2-hydroxy-3,4-dihydro-2H-benzo[e][1,2]oxaborinine-8-carboxylic acid] | > 128 | 8 to 16 (≈ 12.7 to 25.5 µM) | 8 to 16 (≈ 12.7 to 25.5 µM) | 32 to 64 (≈ 50.9 to 102 µM) | > 128 | 8 to 16 (≈ 12.7 to 25.5 µM) | > 128 | > 128 | > 128 | 0.5 to 1 (≈ 0.796 to 1.59 µM) | > 128 | > 128
10 | CCN1CCN(C(=O)NC(C(=O)N[C@H]2Cc3cccc(C(=O)O)c3OB2O)c2cccc(NS(N)(=O)=O)c2)C(=O)C1=O (stereo partly drawn) [Example 98, (3R)-3-(2-(4-ethyl-2,3-dioxopiperazine-1-carboxamido)-2-(3-(sulfamoylamino)phenyl)acetamido)-2-hydroxy-3,4-dihydro-2H-benzo[e][1,2]oxaborinine-8-carboxylic acid] | > 128 | 0.5 to 1 (≈ 0.83 to 1.66 µM) | 0.5 to 1 (≈ 0.83 to 1.66 µM) | 8 to 16 (≈ 13.3 to 26.6 µM) | 8 to 16 (≈ 13.3 to 26.6 µM) | 0.5 to 1 (≈ 0.83 to 1.66 µM) | 8 to 16 (≈ 13.3 to 26.6 µM) | > 128 | 32 to 64 (≈ 53.1 to 106 µM) | < 0.25 | 32 to 64 (≈ 53.1 to 106 µM) | > 128
11 | CCN1CCN(C(=O)NC(C(=O)N[C@H]2Cc3cccc(C(=O)O)c3OB2O)c2cccc(S(N)(=O)=O)c2)C(=O)C1=O (stereo partly drawn) [Example 99, (3R)-3-(2-(4-ethyl-2,3-dioxopiperazine-1-carboxamido)-2-(3-sulfamoylphenyl)acetamido)-2-hydroxy-3,4-dihydro-2H-benzo[e][1,2]oxaborinine-8-carboxylic acid] | 32 to 64 (≈ 54.5 to 109 µM) | 2 to 4 (≈ 3.4 to 6.81 µM) | 2 to 4 (≈ 3.4 to 6.81 µM) | 8 to 16 (≈ 13.6 to 27.2 µM) | 32 to 64 (≈ 54.5 to 109 µM) | 2 to 4 (≈ 3.4 to 6.81 µM) | 32 to 64 (≈ 54.5 to 109 µM) | > 128 | 32 to 64 (≈ 54.5 to 109 µM) | < 0.25 | 32 to 64 (≈ 54.5 to 109 µM) | > 128
